Assay results reported in ChEMBL document CHEMBL5233268, “Application of marine natural products in drug research” (Bioorg Med Chem, 2021).
Values after ≈ are worked out from the molar mass of the structure shown.

How the values were obtained:
5'-nucleotidase = 5'-nucleotidase (Homo sapiens, UniProt P21589); assay: Inhibition of human N-terminal Ecto-5'-nucleotidase
KB = assay: Cytotoxicity against human KB cells assessed as inhibition of cell growth; assay type: functional, cell-based

5'-nucleotidase, sequence (P21589 whole entry): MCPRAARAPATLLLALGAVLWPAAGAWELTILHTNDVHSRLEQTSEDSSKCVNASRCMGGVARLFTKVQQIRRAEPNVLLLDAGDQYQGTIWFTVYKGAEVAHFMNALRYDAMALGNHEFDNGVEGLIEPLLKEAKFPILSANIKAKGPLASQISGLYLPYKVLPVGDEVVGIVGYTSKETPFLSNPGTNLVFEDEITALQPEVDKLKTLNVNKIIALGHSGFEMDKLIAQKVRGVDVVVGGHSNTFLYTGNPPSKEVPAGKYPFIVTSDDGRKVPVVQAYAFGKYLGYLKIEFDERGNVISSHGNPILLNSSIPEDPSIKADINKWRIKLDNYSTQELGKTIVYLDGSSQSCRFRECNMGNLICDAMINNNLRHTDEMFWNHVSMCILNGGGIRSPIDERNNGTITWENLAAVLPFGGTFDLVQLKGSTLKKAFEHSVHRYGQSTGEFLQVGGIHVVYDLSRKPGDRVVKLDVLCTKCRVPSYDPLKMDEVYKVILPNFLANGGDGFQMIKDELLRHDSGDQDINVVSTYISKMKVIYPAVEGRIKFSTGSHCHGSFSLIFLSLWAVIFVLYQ

IC50 (5'-nucleotidase) [nM] | Compound | IC50 (KB) [ng/mL]
1600 | Nc1ncc(/C=C/CNC(=O)c2cc(Br)c(Br)[nH]2)[nH]1 [OROIDIN] | –
– | COc1ccc(C[C@H]2NC(=O)/C=C/C[C@@H]([C@H](C)[C@H]3O[C@@H]3c3ccccc3)OC(=O)[C@H](CC(C)C)OC(=O)CCNC2=O)cc1 [ARENASTATIN A] | 0.005 (≈ 0.00824 nM)
1600 | Nc1ncc(/C=C/CNC(=O)c2ccc[nH]2)[nH]1 [CLATHRODIN] | –
